Data: PubChem BioAssay (NCI)
Where “and” joins values, the source holds several entries; their conditions need not be identical. Equal values may be shown once.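 Method: 48-hour compound exposure of cells in 96-well plates, five concentrations, linear interpolation of endpoints. At the GI50, growth is halved. Definition used: TGI = concentration required for complete inhibition of growth.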

How the values were obtained:
Test in all cases: DTP human tumour cell line panel, 48 h
DU-145 prostate = test system: DU-145 prostate
HCC-2998 colon = test system: HCC-2998 colon
HOP-62 NSCLC = test system: HOP-62 NSCLC
HOP-92 NSCLC = test system: HOP-92 NSCLC
HS 578T breast = test system: HS 578T breast
K-562 leukemia = test system: K-562 leukemia
MALME-3M melanoma = test system: MALME-3M melanoma
NCI-H226 lung = test system: NCI-H226 lung
NCI-H522 lung = test system: NCI-H522 lung
U251 CNS = test system: U251 CNS

Structure (SMILES)	GI50 (DU-145 prostate)	TGI (DU-145 prostate) [µM]	GI50 (HCC-2998 colon)	TGI (HCC-2998 colon) [µM]	GI50 (HOP-62 NSCLC)	TGI (HOP-62 NSCLC) [µM]	GI50 (HOP-92 NSCLC) [nM]	TGI (HOP-92 NSCLC)	GI50 (HS 578T breast)	TGI (HS 578T breast) [µM]	GI50 (K-562 leukemia)	TGI (K-562 leukemia) [µM]	GI50 (MALME-3M melanoma) [nM]	TGI (MALME-3M melanoma) [µM]	GI50 (NCI-H226 lung)	TGI (NCI-H226 lung)	GI50 (NCI-H522 lung)	TGI (NCI-H522 lung) [µM]	GI50 (U251 CNS)	TGI (U251 CNS) [µM]
C=C1C(=O)O[C@H]2[C@H]1CC/C(COC(=O)CCCCCC(=O)OC/C1=C/CC[C@@]3(C)O[C@H]3[C@H]3OC(=O)C(=C)[C@@H]3CC1)=C\CC[C@@]1(C)O[C@@H]21	3.19 µM	12.1	1950 nM	3.98	2.34 µM	6.46	1700	4.12 µM	2.72 µM	22	1180 nM	10.2	2090	5.08	2.02 µM	5.53 µM	1720 nM	3.44	2640 nM	9.61
N#Cc1nc(-c2ccc(F)cc2)oc1S(=O)(=O)N1CCCCC1	1.81 µM	3.24	1800 nM	3.46	5.59 µM	25.5	1760	3.37 µM	2.24 µM	5.74	2430 nM	> 100	1690	3.37	19.1 µM	42.1 µM	927 nM	3.1	2220 nM	5.31
O=C(O)C(Cc1cnc[nH]1)N1C(=O)c2ccccc2C1=O (configuration not stated)		> 100				> 100		> 100 µM		> 100		> 100		> 100		> 100 µM		> 100		> 100
O=C(O)C[C@H](O)C[C@H](O)/C=C/c1c(C2CC2)nc2ccccc2c1-c1ccc(F)cc1	> 100 µM and 31 µM	> 100	42000 nM and 49900 nM	> 100	15 µM and 6.22 µM	> 100		0.227 µM and 0.0622 µM	6.45 µM and 2.1 µM	> 100	6400 nM and 7730 nM	> 100	> 100000	> 100	11.7 µM and 2.22 µM	51.6 µM and 8.01 µM	1380 nM and 633 nM		1620 nM and 302 nM	> 100
Cc1ccc(/C=C(\C#N)c2cc3ccccc3n2C)cc1	0.469 µM	> 100	484 nM	> 100	0.474 µM	> 100	1130	> 100 µM	0.448 µM	> 100	153 nM	> 100			1.45 µM	> 100 µM	269 nM	16.2	406 nM	> 100
CNC(=O)NCC1OC(n2cnc3c(NC(=O)Nc4ccccc4)ncnc32)C(O[Si](C)(C)C(C)(C)C)C1O[Si](C)(C)C(C)(C)C (configuration not stated)	2.58 µM	5.71	2020 nM	3.75	4.98 µM	17.1	1560	5.16 µM					2980	9.84	3.1 µM	8.63 µM	2390 nM	7.14	2960 nM	10.8
OCCCCC#Cc1ccccc1C#Cc1ccc(O)cc1	16.8 µM	33.6	15400 nM	30.4	21.9 µM	38.1	17400	36.2 µM	26.2 µM	77.1	20400 nM	45	20900	43	18.3 µM	39.1 µM	13800 nM	28.8	15000 nM	29.3
COC(=O)c1c2c(c(C)[n+]([O-])c1C)C(=O)C=C(NCc1ccccc1)C2=O	1.35 µM	2.68	432 nM	1.7	1.49 µM	3.19	2170	4.37 µM	2.19 µM	6.88	418 nM	3.05	147	0.353	1.78 µM	3.74 µM	1330 nM	3.25	1330 nM	3.02
O=C1CCc2c(sc3[nH]c(=S)n(-c4cc(C(F)(F)F)cc(C(F)(F)F)c4)c(=O)c23)C1	0.775 µM	> 40	509 nM	1.91	0.553 µM	11.8	205	0.692 µM	0.339 µM	16.4	185 nM	> 73.1	462	2.77	0.801 µM	7.04 µM	344 nM	1.5	364 nM	1.97
O=S(=O)(NC1CCCCC1)c1ccc2c(c1)OCCOCCOCCOCCO2		> 100		> 100		> 100				> 100		> 100		> 100		> 100 µM		> 100		
COc1ccc2c(c1)/C(=C\c1ccncc1)C(=O)N2	14.2 µM	34.3	19000 nM	> 100	21.8 µM	41	22400	98 µM	27.4 µM	82.1	3410 nM	9.56					4000 nM	9.18	4320 nM	23.1
CC1=CC2C(C(O)CC3(C)C2CC(C)C32OCOC23COCO3)C2(C)C/C(=C/O)C(=O)C=C12 (configuration not stated)	2.57 µM	5.81	1910 nM	3.38	1.99 µM	3.52	1780	3.45 µM	2.28 µM	5.72	2090 nM	5.73	1840	3.58			1790 nM	3.47	1660 nM	3.27
COc1c(C(C)=O)c(OCCCCOc2c(C(C)=O)c(OC)c3ccoc3c2OC)c(OC)c2occc12	> 100 µM	> 100	> 100000 nM	> 100	> 100 µM	> 100			> 100 µM	> 100	5450 nM	> 100	2310	8.3		> 100 µM	2630 nM	> 100	> 28100 nM	> 100
CCOc1ccc2c(-c3ccnc(Nc4cc(OC)cc(C(F)(F)F)c4)n3)cnn2n1	> 18.9 µM	> 25	> 25000 nM	> 25	> 25 µM	> 25			> 17.4 µM	> 25	1970 nM	> 25	> 25000	> 25	> 25 µM	> 25 µM	1850 nM	> 10.9	> 13000 nM	> 25
CO/N=C(\COc1ccc2c(=O)c3ccccc3oc2c1)c1ccccc1	22.4 µM	61.4			26.8 µM	78.3	25700	64 µM	30.6 µM	89.8	72100 nM	> 100	19100	48.3	40.8 µM	> 100 µM	33400 nM	> 100	26600 nM	79.2
CN(C)Cc1ccc(-c2cc3onc(-c4ccccc4)c3c(=O)n2C)cc1		85.3				41.3		87.6 µM		46.2		74.2		72.5		> 100 µM		39.5		64.8
CCCCCCCCCCCC1=NC(C)(C)CN1C(C)(C)CO	3.12 µM	15.3	1750 nM	3.24	2.72 µM	9.53	2310	7.49 µM	1.45 µM	3.48	1840 nM	4.38			5.16 µM	20.5 µM	1840 nM	4.02	1900 nM	4.77
COc1cc(/C=C/c2ccc(C)cc2)cc(OC)c1OC		13.7				16.3		25.5 µM		9.71		> 100		10.5		11.4 µM		5.7		23.9
Cc1ccc(/C=C/c2c(C(=O)/C=C/c3ccccc3)c(C)nc3ccccc23)cc1	1.65 µM	3.15	1710 nM	3.35	1.74 µM	3.49	1520	4.34 µM			1730 nM	5.38	1740	3.18	1.69 µM	3.46 µM	1400 nM	3.29	1500 nM	2.87
CCC[CH2][Sn]([CH2]CCC)([O]C(=O)c1cc(OC)c(OC)cc1OC)[O][Sn]([CH2]CCC)([CH2]CCC)[O]C(=O)c1cc(OC)c(OC)cc1OC			1100 nM	2.41	2.11 µM	3.67	206	0.564 µM			81.2 nM	8.43	229	0.977	0.507 µM	1.08 µM		0.0556	1170 nM	2.41
Cc1cn2c(/C=C3/C(=O)Nc4c3ccc3ccccc43)c(C(F)(F)F)nc2s1	1.67 µM	> 100	3230 nM	> 100	0.586 µM	93.1	5100	98.7 µM	3 µM	78.7	483 nM	14.1			17.9 µM	> 100 µM	584 nM	> 100	2120 nM	> 100
CCCn1c2c(c3c(O)cccc31)C(=O)c1ccccc1-2	23.4 µM	> 100	9720 nM	> 100	8.24 µM	27.6			33.1 µM	> 100	> 100000 nM	> 100	64600	> 100	28.3 µM	> 100 µM	23000 nM	> 100	18200 nM	56.2
CN1C(=O)c2ccc3ccccc3c2C1=O		> 100		> 100		> 100		> 100 µM		> 100		> 100				> 100 µM		> 100		> 100
Oc1c(C(Nc2ccccc2Br)c2ccccc2)ccc2cccnc12 (configuration not stated)	4.81 µM	> 100	2190 nM	97.9	2.28 µM	19.7	6510	75.9 µM	10.7 µM	> 100	2300 nM	> 100	4420	29.2			2390 nM	16.6	674 nM	13.4
O=C(Oc1cccc(Cl)c1)c1ccccc1Nc1ccnc(C(F)(F)F)c1	14.2 µM	27.6	3460 nM	6.66	24.9 µM	44.7	8740	32.1 µM	20.8 µM	61	3270 nM	34.3			2.15 µM	8.89 µM	4210 nM	41.1		
COc1cc2c(cc1OC)-c1ncc3c(OC)ccc(OC)c3c1C2	28.1 µM	> 100	22600 nM	> 100	21.4 µM	61.3	39400	> 100 µM	8.05 µM	42.4	12300 nM	82					2940 nM	31.8	14600 nM	56.4
COc1cc(CNc2nc3c(N)cc(C(F)(F)F)cc3nc2-c2ccccc2)cc(OC)c1OC				> 100		> 100		> 100 µM				> 100		> 100		> 100 µM		78.5		> 100
COc1ccc(-c2cc(=O)n(-c3nc4ccccc4[nH]3)[nH]2)cc1OC	17.5 µM	> 100	16100 nM	> 100	9.36 µM	> 100			4 µM	66.6	3730 nM	25.7			15 µM	67.1 µM	2960 nM	9.14	4200 nM	> 100
C/C(CC(=O)NCCc1ccccc1)=N\NS(=O)(=O)c1ccc(C)cc1				> 100		> 100		> 100 µM				> 100		> 100		> 100 µM		> 100		> 100
